From patent publication US20220226480A1, “LIPID CONJUGATE PREPARED FROM SCAFFOLD MOIETY” (Integrated Nanotherapeutics Inc., priority 2019, published 2022)

How the values were obtained:
[1] = Particle size and polydispersity of LNP containing pro-drug (dynamic light scattering); format: physicochemical; design: Size of LNP: unit not given here; details: for Particle Diameter (nm) / Polydispersity index (PDI): LNP containing 10 mol % conjugate, primary PC-lipid DMPC
Procedure: (§1) LNPs were prepared by dissolving 1,2-Distearoyl-sn-glycero-3-phosphocholine (DSPC) or 1,2-dimyristoyl-sn-glycero-3-phosphocholine (DMPC), cholesterol and 1,2-Distearoyl-sn-glycero-3-phosphoethanolamine-Poly(ethylene glycol) (PEG-DSPE) in ethanol. DSPC, DMPC and PEG-DSPE were purchased from Avanti Polar Lipids (Alabaster, Ala.), and cholesterol was obtained from Sigma (St Louis, Mo.).
(§2) Drug-lipid-conjugates INT-D034, INT-D035, INT-D045, INT-D046, INT-D047, INT-D048, INT-D049, INT-D050, INT-D051, INT-D053, INT-D060, INT-D061, INT-D062, INT-D063, INT-D083, INT-D085, INT-D086, INT-D088 and INT-D089 (see FIG. 3 and Example 7 for structures) were dissolved in isopropanol or THF. LNP were prepared by rapidly mixing DSPC or DMPC, cholesterol, drug-lipid conjugate, and PEG-DSPE (in molar ratio of 49/40/10/1) with phosphate-buffered saline (PBS) using a cross-junction mixer. Formulations were dialyzed against PBS to remove residual ethanol. In formulation$ with more than 10 mol % drug-lipid conjugates, the amount of phospholipid or cholesterol was reduced accordingly.
(§3) The physiochemical properties of the LNPs prepared as described above were subsequently characterized. Particle size was determined by dynamic light scattering using a Malvern Zetasizer Nano ZS (Malvern, UK) following buffer exchange into phosphate-buffered saline. Number-weighted size and distribution date was used. Lipid concentrations were determined by measuring total cholesterol using the Cholesterol E enzymatic assay kit from Wako Chemicals USA (Richmond, Va.). The morphology of LNP formulations containing LD-DEX was analyzed by cryogenic-transmission electron microscopy (cryoTEM).

[2] = Encapsulation efficiency / incorporation of pro-drug in LNP; format: physicochemical; details: for Encapsulation Efficiency (%): LNP containing 10 mol % conjugate, primary PC-lipid DMPC; for % Entrapment: LNP formulations containing pro-drugs (10 mol %, FIG. 6A)
Procedure: as §1, §2, §3

CD4+ T cells = assay: Mixed lymphocyte reaction (MLR) assay, BMDCs with allogeneic CD4+ T cells; format: cell-based, mice; details: LNP containing 10-99 mol % conjugate; BMDCs treated 48 hours, LPS 24 hours; 5:1 or 10:1 T-to-BMDC ratio; 3 days; flow cytometry
Procedure: Bone marrow derived dendritic cells (BMDCs) from C57Bl/6 male mice were first treated with LNP containing various mol % of the dexamethasone or calcitriol conjugates for 48 hours and then activated by incubation with LIPS for 24 hours. They were then harvested and mixed with CD4+ T cells isolated from Balb/cJ male mice (Jackson Laboratories) at 5:1 or 10:1 T-to-BMDC ratio.
Dexamethasone and calcitriol can tolerize antigen presenting cells (APCs). […] Bone marrow derived dendritic cells (BMDCs) from C57BI/6 male mice (Charles River) were first treated with LNP containing various mol % of dexamethasone or calcitriol conjugates for 48 hours and then activated by incubation with LPS for 24 hours. They were then harvested and mixed with CD4+ T cells isolated from Balb/cl male mice (Jackson Laboratories) at 5:1 or 10:1 T-to-BMDC ratio. The levels of T cells proliferation after 3 days were quantified using flow cytometry.

[3] = Dissociation of pro-drugs from LNP after incubation in human plasma (size exclusion chromatography, UPLC); format: in vitro ADME; details: 10 mol % in LNP, 2 hours, 37° C. (FIG. 6A)
From the text: The release of ricinoleyl-dexamethasone conjugates from LNP was examined using an assay involving human plasma, which contains lipoproteins as a lipid sink for lipid exchanges to occur. The plasma lacked active esterases that may digest the ricinoleyl-dexamethasone conjugates, which would in turn prevent the detection and monitoring of intact conjugates.
LNP formulations containing 10-99 mol % INT-D034, INT-D035, INT-D045, INT-D046, INT-0047, INT-D048 or INT-D049, INT-D050, INT-D051, INT-D053, INT-D083, INT-D085, INT-D086 or INT-D089 (see FIG. 3 and Example 7 for structures) were subjected to incubation in human plasma for 0, 2 or 24 hours at 37° C. at 1.2 mM total lipid. Size exclusion chromatography was performed to separate LNP from lipoproteins (1.5×27 cm Sepharose […] size exclusion column). Thirty fractions of 2 mL were collected and three volumes of isopropanol/methanol (1:1 v/v) were added to each fraction.
Drug-lipid conjugates were quantified by ultra high pressure liquid chromatography (UPLC) using a Water® Acquity™ UPLC system equipped with a photodiode array detector (PDA); Empower™ data acquisition software version 2.0 was used (Waters, USA). […] The method was run over 6 minutes with a column temperature of 55° C. and the analyte was measured by monitoring the PDA detector at a wavelength of 239 nm.

[4] = LNP formulations containing pro-drugs (10 mol %, FIG. 6A)
[5] = LNP, pro-drug concentration 10 %
[6] = LNP, pro-drug concentration 20 %
[7] = LNP, pro-drug concentration 80 %
[8] = LNP, pro-drug concentration 90 %
[9] = LNP, pro-drug concentration 99 %
[10] = LNP, pro-drug concentration 60 %

| Compound | Particle Diameter (nm) [1] [nm] | Polydispersity index (PDI) [1] | PdI [1, 4] | Size of LNP [1, 4] | PdI [1, 5] | Size (nm) [1, 5] [nm] | PdI [1, 6] | Size (nm) [1, 6] [nm] | PdI [1, 7] | Size (nm) [1, 7] [nm] | PdI [1, 8] | Size (nm) [1, 8] [nm] | PdI [1, 9] | Size (nm) [1, 9] [nm] | Encapsulation Efficiency (%) [2] [%] | % Entrapment [2] [%] | allogeneic T-cell proliferation (CD4+ T cells) | pro-drug remained in LNP [3] | PdI [1, 10] | Size (nm) [1, 10] [nm] |
| --- | --- | --- | --- | --- | --- | --- | --- | --- | --- | --- | --- | --- | --- | --- | --- | --- | --- | --- | --- | --- |
| CCCCC/C=C\C/C=C\CCCCCCCC(=O)O[C@@H](C/C=C\CCCCCCCCOC(=O)CCC(=O)OCC(=O)[C@@]1(O)[C@H](C)C[C@H]2[C@@H]3CCC4=CC(=O)C=C[C@]4(C)[C@@]3(F)[C@@H](O)C[C@@]21C)CCCCCC [INT-D045, 2-((8S,9R,10S,11S,13S,14S,16R,17R)-9-fluoro-11,17-dihydroxy-10,13,16-trimethyl-3-oxo-6,7,8,9,10,11,12,13,14,15,16,17-dodecahydro-3H-cyclopenta[a]phenanthren-17-yl)-2-oxoethyl ((R,Z)-12-(linoleoyloxy)octadec-9-en-1-yl) succinate] | 68 | 0.03 | 0.03 | 64 | 0.076 | 46 | 0.073 | 48 | 0.033 | 69 | 0.054 | 74 | 0.045 | 75 | 99 | 100 | able to suppress allogeneic T-cell proliferation | – | – | – |
| CCCCCC[C@H](C/C=C\CCCCCCCCOC(=O)CCC(=O)OCC(=O)[C@@]1(O)[C@H](C)C[C@H]2[C@@H]3CCC4=CC(=O)C=C[C@]4(C)[C@@]3(F)[C@@H](O)C[C@@]21C)OC(C)=O [INT-D047, (R,Z)-12-acetoxyoctadec-9-en-1-yl (2-((8S,9R,10S,11S,13S,14S,16R,17R)-9-fluoro-11,17-dihydroxy-10,13,16-trimethyl-3-oxo-6,7,8,9,10,11,12,13,14,15,16,17-dodecahydro-3H-cyclopenta[a]phenanthren-17-yl)-2-oxoethyl) succinate] | 68 | 0.02 | 0.06 | 70 | – | – | – | – | – | – | – | – | – | – | 100 | 100 | – | ~40% | – | – |
| CCCCC/C=C\C/C=C\CCCCCCCC(=O)OC(CCCCCCCC)C(CCCCCCCC(=O)OCC(=O)[C@@]1(O)[C@H](C)C[C@H]2[C@@H]3CCC4=CC(=O)C=C[C@]4(C)[C@@]3(F)[C@@H](O)C[C@@]21C)OC(=O)CCCCCCC/C=C\C/C=C\CCCCC (stereo partly drawn) [INT-D086, 1-(2-((8S,9R,10S,11S,13S,14S,16R,17R)-9-Fluoro-11,17-dihydroxy-10,13,16-trimethyl-3-oxo-6,7,8,9,10,11,12,13,14,15,16,17-dodecahydro-3H-cyclopenta[a]phenanthren-17-yl)-2-oxoethoxy)-1-oxooctadecane-9,10-diyl (9Z,9′Z,12Z,12′4)-bis(octadeca-9,12-dienoate)] | – | – | 0.08 | 38 | 0.082 | 38 | 0.117 | 35 | 0.028 | 165 | – | – | 0.026 | 160 | – | 92 | – | over 90% | 0.036 | 82 |
| CCCCC/C=C\C/C=C\CCCCCCCC(=O)O[C@@H](C/C=C\CCCCCCCC(=O)OCC(=O)[C@@]1(O)[C@H](C)C[C@H]2[C@@H]3CCC4=CC(=O)C=C[C@]4(C)[C@@]3(F)[C@@H](O)C[C@@]21C)CCCCCC [INT-D089, 2-((8S,9R,10S,11S,13S,14S,16R,17R)-9-Fluoro-11,17-dihydroxy-10,13,16-trimethyl-3-oxo-6,7,8,9,10,11,12,13,14,15,16,17-dodecahydro-3H-cyclopenta[a]phenanthren-17-yl)-2-oxoethyl (R,Z)-12-linoleoyloxyoleate] | – | – | 0.07 | 41 | – | – | – | – | – | – | – | – | – | – | – | 100 | – | – | – | – |
| (1R,3S,2)-3-hydroxy-5-(2-((1R,3aS,7aR,E)-1-((R)-6-hydroxy-6-methylheptan-2-yl)-7a-methyloctahydro-4H-inden-4-ylidene)ethylidene)-4-methylenecyclohexyl (R,Z)-12-acetoxyoctadec-9-enoate and (1S,5R,Z)-5-hydroxy-3-(2-((1R,3aS,7aR,E)-1-((R)-6-hydroxy-6-methylheptan-2-yl)-7a-methyloctahydro-4H-inden-4-ylidene)ethylidene)-2-methylenecyclohexyl(RA-12-acetoxyoctadec-9-enoate [INT-D053] | – | – | – | – | 0.081 | 54 | 0.052 | 56 | 0.029 | 106 | – | – | 0.018 | 98 | – | – | able to suppress allogeneic T-cell proliferation | – | – | – |
